Measurements: patent US11566007B2, “Ras inhibitors” (Revolution Medicines, Inc., priority 2019, dated 2023)

Key:
[1] = molecular target: KRAS G12V (Homo sapiens (Human), UniProt P01116+P62937, G12V); test: Ras-Raf (BRAF RBD) disruption / FRET / MOA assay, KRAS G12V; assay type: biochemical; details: read-out: IC50* KRAS G12V FRET data
Method in brief: (§1)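 Compound-driven ternary complex of nucleotide-loaded Ras with cyclophilin A, disrupting BRAF RBD binding. 10-point 3-fold dilution from 30 μM final, 3 h at 25° C, then anti-His Eu-W1024 (10 nM) and anti-GST allophycocyanin (50 nM) for 1.5 h. IC50 from TR-FRET ratio decrease versus DMSO.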

[2] = molecular target: NRAS G12C (Homo sapiens (Human), UniProt P01111+P62937, G12C); test: Ras-Raf (BRAF RBD) disruption / FRET / MOA assay, NRAS G12C; assay type: biochemical; details: read-out: IC50* NRAS G12C FRET data
Method in brief: as §1

[3] = molecular target: K-Ras G13C (Homo sapiens (Human), UniProt P01116+P62937, G13C); test: Ras-Raf (BRAF RBD) disruption / FRET / MOA assay, KRAS G13C; assay type: biochemical; details: KRAS G13C; Ras-Raf disruption/FRET/MOA assay; read-out: IC50* KRAS G13C FRET data
Method in brief: as §1

[4] = molecular target: NRAS Q61R (Homo sapiens (Human), UniProt P01111+P62937, Q61R); test: Ras-Raf (BRAF RBD) disruption / FRET / MOA assay, NRAS Q61R; assay type: biochemical; details: NRAS Q61R; Ras-Raf disruption/FRET/MOA assay; read-out: IC50* NRAS Q61R FRET data
Method in brief: (§2)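 Compounds (30 μM top final, 10-point 3-fold dilutions) incubated 3 h at 25° C with nucleotide-loaded Ras, cyclophilin A and BRAF RBD. Detection with 10 nM anti-His Eu-W1024 and 50 nM anti-GST allophycocyanin over another 1.5 h. Lowered TR-FRET ratio relative to DMSO wells gives IC50.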

[5] = molecular target: KRAS G12D (Homo sapiens (Human), UniProt P01116+P62937, G12D); test: Ras-Raf (BRAF RBD) disruption / FRET / MOA assay, KRAS G12D; assay type: biochemical; details: Ras-Raf disruption/FRET/MOA assay; class symbols; read-out: KRAS G12D FRET data IC50
Method in brief: as §1

[6] = molecular target: NRAS Q61K (Homo sapiens (Human), UniProt P01111+P62937, Q61K); test: Ras-Raf (BRAF RBD) disruption / FRET / MOA assay, NRAS Q61K; assay type: biochemical; details: NRAS Q61K; Ras-Raf disruption/FRET/MOA assay; read-out: IC50* NRAS Q61K FRET data
Method in brief: as §2

[7] = molecular target: K-Ras G12C (Homo sapiens (Human), UniProt P01116+P62937, G12C); test: Ras-Raf (BRAF RBD) disruption / FRET / MOA assay, KRAS G12C; assay type: biochemical; details: KRAS G12C; Ras-Raf disruption/FRET/MOA assay; read-out: IC50* KRAS G12C FRET data
Method in brief: as §1

[8] = test system: NCI-H358 (K-Ras G12C); test: CellTiter-Glo cell viability assay, NCI-H358; assay type: cell-based, human; details: Homo sapiens, NCI-H358, 120 h, NCI-H358, 5-day treatment; class symbols; read-out: Additional H358 Cell Viability assay data (K-Ras G12C, IC50)
Method in brief: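 Viability measured by CellTiter-Glo luminescence on day 5 following direct addition of compound to plated cells. Values expressed as percent of mean DMSO signal; curves fitted with a four-parameter logistic model.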

[9] = molecular target: KRAS G12S (Homo sapiens (Human), UniProt P01116+P62937, G12S); test: Ras-Raf (BRAF RBD) disruption / FRET / MOA assay, KRAS G12S; assay type: biochemical; details: Ras-Raf disruption/FRET/MOA assay; class symbols; read-out: KRAS G12S FRET data IC50
Method in brief: as §1

[10] = molecular target: KRAS Q61H (Homo sapiens (Human), UniProt P01116+P62937, Q61H); test: Ras-Raf (BRAF RBD) disruption / FRET / MOA assay, KRAS Q61H; assay type: biochemical; details: Ras-Raf disruption/FRET/MOA assay; class symbols; read-out: KRAS Q61H FRET data IC50
Method in brief: as §2

[11] = molecular target: KRAS WT (Homo sapiens (Human), UniProt P01116+P62937); test: Ras-Raf (BRAF RBD) disruption / FRET / MOA assay, KRAS WT; assay type: biochemical; details: read-out: IC50* KRAS WT FRET data
Method in brief: as §1

[12] = molecular target: KRAS G13D (Homo sapiens (Human), UniProt P01116+P62937, G13D); test: Ras-Raf (BRAF RBD) disruption / FRET / MOA assay, KRAS G13D; assay type: biochemical; details: read-out: IC50* KRAS G13D FRET data
Method in brief: as §1

Sequence of KRAS G12S (P01116-2 other isoform, or with tags, fused parts or gaps G12S): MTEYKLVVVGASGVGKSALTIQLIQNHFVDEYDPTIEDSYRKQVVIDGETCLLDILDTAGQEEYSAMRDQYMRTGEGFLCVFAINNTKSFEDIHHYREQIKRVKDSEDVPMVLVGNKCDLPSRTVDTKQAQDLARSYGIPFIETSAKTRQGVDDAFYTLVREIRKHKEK
Sequence of KRAS G12S (P62937 whole entry): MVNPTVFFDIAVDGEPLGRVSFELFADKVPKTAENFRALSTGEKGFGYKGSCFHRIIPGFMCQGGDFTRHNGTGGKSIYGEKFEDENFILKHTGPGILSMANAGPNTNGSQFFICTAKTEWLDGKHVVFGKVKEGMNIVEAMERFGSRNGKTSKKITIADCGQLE
Sequence of KRAS G12V (P01116-2 other isoform, or with tags, fused parts or gaps G12V): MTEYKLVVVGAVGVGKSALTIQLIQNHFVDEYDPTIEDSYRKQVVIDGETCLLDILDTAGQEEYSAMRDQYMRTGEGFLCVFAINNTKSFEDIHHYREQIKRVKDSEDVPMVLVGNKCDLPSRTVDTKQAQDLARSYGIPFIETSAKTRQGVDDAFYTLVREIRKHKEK
Sequence of KRAS G12V (P62937 whole entry): as the sequence (P62937 whole entry) above
Sequence of NRAS G12C (P01111 whole entry G12C): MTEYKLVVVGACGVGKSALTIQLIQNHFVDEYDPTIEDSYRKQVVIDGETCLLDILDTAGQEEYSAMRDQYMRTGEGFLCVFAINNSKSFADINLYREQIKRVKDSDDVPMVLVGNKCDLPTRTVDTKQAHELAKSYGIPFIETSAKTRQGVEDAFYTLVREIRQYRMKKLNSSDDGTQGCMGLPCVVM
Sequence of NRAS G12C (P62937 whole entry): as the sequence (P62937 whole entry) above
Sequence of KRAS G12D (P01116-2 other isoform, or with tags, fused parts or gaps G12D): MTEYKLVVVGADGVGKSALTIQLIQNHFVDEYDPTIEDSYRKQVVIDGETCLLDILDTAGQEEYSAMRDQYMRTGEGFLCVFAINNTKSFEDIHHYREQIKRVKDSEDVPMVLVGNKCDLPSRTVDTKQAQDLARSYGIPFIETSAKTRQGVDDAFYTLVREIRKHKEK
Sequence of KRAS G12D (P62937 whole entry): as the sequence (P62937 whole entry) above
Sequence of KRAS Q61H (P01116-2 other isoform, or with tags, fused parts or gaps Q61H): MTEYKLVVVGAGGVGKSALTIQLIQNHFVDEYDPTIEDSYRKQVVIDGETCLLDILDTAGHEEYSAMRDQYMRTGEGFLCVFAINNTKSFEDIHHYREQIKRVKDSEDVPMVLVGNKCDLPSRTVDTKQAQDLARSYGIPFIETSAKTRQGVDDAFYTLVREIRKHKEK
Sequence of KRAS Q61H (P62937 whole entry): as the sequence (P62937 whole entry) above
Sequence of NRAS Q61K (P01111 whole entry Q61K): as the sequence (P01111 whole entry G12C) above, with C12G, Q61K counted along it
Sequence of NRAS Q61K (P62937 whole entry): as the sequence (P62937 whole entry) above
Sequence of K-Ras G12C (P01116-2 other isoform, or with tags, fused parts or gaps G12C): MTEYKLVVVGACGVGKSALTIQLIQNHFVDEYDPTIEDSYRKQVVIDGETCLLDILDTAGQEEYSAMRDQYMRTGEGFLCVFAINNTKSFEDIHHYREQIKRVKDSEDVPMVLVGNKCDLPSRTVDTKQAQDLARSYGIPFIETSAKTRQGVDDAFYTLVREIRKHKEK
Sequence of K-Ras G12C (P62937 whole entry): as the sequence (P62937 whole entry) above
Sequence of KRAS WT (P01116-2 other isoform, or with tags, fused parts or gaps): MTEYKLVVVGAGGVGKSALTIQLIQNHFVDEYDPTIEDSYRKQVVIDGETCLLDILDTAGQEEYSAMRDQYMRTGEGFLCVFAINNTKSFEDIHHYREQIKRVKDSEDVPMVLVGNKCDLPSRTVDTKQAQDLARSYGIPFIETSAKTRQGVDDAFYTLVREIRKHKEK
Sequence of KRAS WT (P62937 whole entry): as the sequence (P62937 whole entry) above
Sequence of K-Ras G13C (P01116-2 other isoform, or with tags, fused parts or gaps G13C): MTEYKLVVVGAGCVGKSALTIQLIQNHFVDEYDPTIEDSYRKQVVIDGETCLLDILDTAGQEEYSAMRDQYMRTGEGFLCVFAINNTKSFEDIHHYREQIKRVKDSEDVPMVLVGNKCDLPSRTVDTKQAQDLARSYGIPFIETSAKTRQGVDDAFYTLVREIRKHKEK
Sequence of K-Ras G13C (P62937 whole entry): as the sequence (P62937 whole entry) above
Sequence of KRAS G13D (P01116-2 other isoform, or with tags, fused parts or gaps G13D): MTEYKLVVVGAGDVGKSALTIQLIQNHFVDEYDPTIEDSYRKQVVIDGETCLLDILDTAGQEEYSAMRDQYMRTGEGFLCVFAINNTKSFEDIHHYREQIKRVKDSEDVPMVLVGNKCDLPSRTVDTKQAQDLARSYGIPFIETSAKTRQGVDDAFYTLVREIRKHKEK
Sequence of KRAS G13D (P62937 whole entry): as the sequence (P62937 whole entry) above
Sequence of NRAS Q61R (P01111 whole entry Q61R): as the sequence (P01111 whole entry G12C) above, with C12G, Q61R counted along it
Sequence of NRAS Q61R (P62937 whole entry): as the sequence (P62937 whole entry) above

Structure (SMILES)	IC50 [1] [nM]	IC50 [2] [nM]	IC50 [3] [nM]	IC50 [4] [nM]	IC50 [5] [nM]	IC50 [6] [nM]	IC50 [7] [nM]	IC50 [8] [nM]	IC50 [9] [nM]	IC50 [10] [nM]	IC50 [11] [nM]	IC50 [12] [nM]
CCn1c(-c2cccnc2[C@H](C)OC)c2c3cc(ccc31)N1CCO[C@@](C)(C[C@H](NC(=O)[C@H](C(C)C)N(C)C(=O)C3(F)CCN(C(=O)C#CC(C)(C)N(C)C)CC3)C(=O)N3CCC[C@H](N3)C(=O)OCC(C)(C)C2)C1 [Example A550]	100 to 1000	< 10	100 to 1000	1000 to 10000	1000 to 10000	1000 to 10000	< 10	< 10	1000 to 10000	1000 to 10000	100 to 1000	1000 to 10000
CCn1c(-c2cccnc2[C@H](C)OC)c2c3cc(ccc31)-c1cccc(c1)C[C@H](NC(=O)[C@H](C(C)C)N(C)C(=O)C1(F)CCN(C(=O)/C=C/CN(C)C)CC1)C(=O)N1CCC[C@H](N1)C(=O)OCC(C)(C)C2 (atropisomer, axis not shown) [Example A685]	100 to 1000	10 to 100	100 to 1000	100 to 1000	100 to 1000	100 to 1000	10 to 100	< 10	100 to 1000	100 to 1000	100 to 1000	100 to 1000
C=CC(=O)N1CCO[C@H]2CN(C(=O)N(C)[C@H](C(=O)N[C@H]3CC4=NN=C(O4)c4ccc5c(c4)c(c(-c4cccnc4[C@H](C)OC)n5CC(F)(F)F)CC(C)(C)COC(=O)[C@@H]4CCCN(N4)C3=O)C(C)C)C[C@H]21 (atropisomer, axis not shown) [Example A576]	> 10000	100 to 1000	100 to 1000	> 10000	> 10000	1000 to 10000	100 to 1000	100 to 1000	> 10000	1000 to 10000	1000 to 10000	> 10000
C=CC(=O)N1CC2(CCCN2C(=O)N(C)[C@H](C(=O)N[C@H]2Cc3nc(cs3)-c3ccc4c(c3)c(c(-c3cccnc3[C@H](C)OC)n4CC)CC(C)(C)COC(=O)[C@@H]3CCCN(N3)C2=O)C(C)C)C1 (atropisomer, axis not shown) [Example A667]	100 to 1000	< 10	100 to 1000	10 to 100	100 to 1000	10 to 100	< 10	< 10	100 to 1000	10 to 100	10 to 100	100 to 1000
C=CC(=O)N1C[C@H](C)N(C(=O)N(C)[C@H](C(=O)N[C@H]2Cc3nc(cs3)-c3ccc4c(c3)c(c(-c3cccnc3[C@H](C)OC)n4CC)CC(C)(C)COC(=O)[C@@H]3CCCN(N3)C2=O)C(C)C)C[C@@H]1C (atropisomer, axis not shown) [Example A385]	100 to 1000	10 to 100	10 to 100	10 to 100	100 to 1000	10 to 100	10 to 100	< 10	10 to 100	10 to 100	10 to 100	100 to 1000
CO[C@@H](C)c1ncccc1-c1c2c3cc(ccc3n1CC(F)(F)F)-c1csc(n1)C[C@H](NC(=O)[C@H](C(C)C)N(C)C(=O)N1CCC3(CC1)CN(C(=O)/C=C/CF)C3)C(=O)N1CCC[C@H](N1)C(=O)OCC(C)(C)C2 (atropisomer, axis not shown) [Example A602]	10 to 100	10 to 100	10 to 100	10 to 100	100 to 1000	10 to 100	10 to 100	< 10	10 to 100	10 to 100	10 to 100	100 to 1000
